# Source: patent US9540377B2, “2,6,7,8 substituted purines as HDM2 inhibitors” (Merck Sharp & Dohme Corp., priority 2013, dated 2017)
# pIC50: −log10 of the molar value. Where two headings read alike, the source gives them in different places.
# Columns and labels:
# HDM2 = HDM2 (Homo sapiens (Human), UniProt Q00987); assay: FRET assay (FRET IC50 of Tables 1-11); type: binding
# [1] = target: HDM2 (truncated, residues 17 to 125, containing p53 binding surface) (Homo sapiens (Human), UniProt Q00987); assay: HDM2 FRET assay (inhibition of binding of FITC labeled p53-site peptide to HDM2)
# Text: IC50 DETERMINATIONS: Dose-response curves were plotted from the inhibition data, from 10 point serial dilutions of inhibitory compounds. Concentration of compound was plotted against em520/Cem495 ratio signal. To generate IC50 values, the dose-response curves were fitted to a standard sigmoidal curve and IC50 values were derived by nonlinear regression analysis.
# Sequence of HDM2 (Q00987 17-125): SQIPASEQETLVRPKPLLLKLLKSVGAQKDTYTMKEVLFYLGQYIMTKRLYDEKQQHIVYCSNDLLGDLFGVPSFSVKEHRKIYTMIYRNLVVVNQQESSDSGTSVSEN
# Sequence of HDM2 (truncated, residues 17 to 125, containing p53 binding surface) (Q00987 17-125): as above
compound,measurement,setting,value
"COc1ccc(C)cc1-c1nc2nc(C(=O)O)nc(N[C@H](C)C3CC3(F)F)c2n1Cc1ccc(C(F)(F)F)cc1 (stereo partly drawn) [Example 7.19, 6-{[(1R)-1-(2,2-difluorocyclopropyl)ethyl]amino}-8-(2-methoxy-5-methylphenyl)-7-[4-(trifluoromethyl)benzyl]-7H-purine-2-carboxylic acid]",pIC50,HDM2,7.14
6-{[(1R)-1-cyclopropylethyl]ammo}-8-phenyl-7-[4-(trifluoromethyl)benzyl]-7H-purine-2-carboxylic acid [Example 1.96],pIC50,HDM2,6.43
"C[C@@H](Nc1nc(C(=O)O)nc2nc(N3CCCCC3Cc3ccccc3)n(Cc3ccc(C(F)(F)F)cc3)c12)C1CCC1 (stereo partly drawn) [Example 9.3, 8-(2-benzylpiperidin-1-yl)-6-{[(1R)-1-cyclobutylethyl]amino}-7-[4-(trifluoromethyl)benzyl]-7H-purine-2-carboxylic acid]",pIC50,HDM2; Table 9,7.68
"CC([C@H]1CC[C@H](C)CC1)n1c(N2CCOC3CCCC32)nc2nc(-c3noc(=O)[nH]3)nc(-c3cncc(Cl)c3)c21 (single isomer, unassigned) [Example 18.53, 3-{6-(5-chloropyridin-3-yl)-8-(hexahydrocyclopenta[b][1,4]oxazin-4(4aH)-yl)-7-[1-(trans-4-methylcyclohexyl)ethyl]-7H-purin-2-yl}-1,2,4-oxadiazol-5(4H)-one]",pIC50,[1]; Table 18,8.13
"COC(C)(c1ccccc1F)c1nc2nc(-c3noc(=O)[nH]3)nc(-c3cncc(Cl)c3)c2n1C[C@H]1CC[C@H](C)CC1 (single isomer, unassigned) [Example 23.50, 3-{6-(5-chloropyridin-3-yl)-8-[1-(2-fluorophenyl)-1-methoxyethyl]-7-[(trans-4-methylcyclohexyl)methyl]-7H-purin-2-yl}-1,2,4-oxadiazol-5(4H)-one]",pIC50,[1]; Table 23,8.18
"CC(F)(c1ccccc1F)c1nc2nc(-c3n[nH]c(=O)o3)nc(-c3cncc(Cl)c3)c2n1C[C@H]1CC[C@H](C)CC1 (single isomer, unassigned) [Example 23.32, 5-{6-(5-chloropyridin-3-yl)-8-[1-fluoro-1-(2-fluorophenyl)ethyl]-7-[(trans-4-methylcyclohexyl)methyl]-7H-purin-2-yl}-1,3,4-oxadiazol-2(3H)-one]",pIC50,[1]; Table 23,7.79
"CC(c1ccccc1C#N)c1nc2nc(-c3noc(=O)[nH]3)nc(-c3cncc(Cl)c3)c2n1C[C@H]1CC[C@H](C)CC1 (mixture of isomers) [Example 23.116, 2-{1-[6-(5-chloropyridin-3-yl)-7-[(trans-4-methylcyclohexyl)methyl]-2-(5-oxo-4,5-dihydro-1,2,4-oxadiazol-3-yl)-7H-purin-8-yl]ethyl}benzonitrile]",pIC50,[1]; Table 23,8.62
"C[C@H]1CC[C@H](Cn2c(C3(F)CCOc4cccnc43)nc3nc(-c4n[nH]c(=O)o4)nc(-c4cncc(Cl)c4)c32)CC1 (mixture of isomers) [Example 23.92, 5-{6-(5-chloropyridin-3-yl)-8-(4-fluoro-3,4-dihydro-2H-pyrano[3,2-b]pyridin-4-yl)-7-[(trans-4-methylcyclohexyl)methyl]-7H-purin-2-yl}-1,3,4-oxadiazol-2(3H)-one]",pIC50,[1]; Table 23,8.61
"Cc1noc(C2CCCN2c2nc3nc(-c4n[nH]c(=O)o4)nc(-c4cncc(Cl)c4)c3n2C[C@H]2CC[C@H](C)CC2)n1 (mixture of isomers) [Example 16.146, 5-{6-(5-chloropyridin-3-yl)-7-[(trans-4-methylcyclohexyl)methyl]-8-[2-(3-methyl-1,2,4-oxadiazol-5-yl)pyrrolidin-1-yl]-7H-purin-2-yl}-1,3,4-oxadiazol-2(3H)-one]",pIC50,[1]; Table 16,8.52
"C[C@H]1CC[C@H](Cn2c(C(O)C3CCCCC3)nc3nc(-c4noc(=O)[nH]4)nc(-c4cccc(Cl)c4)c32)CC1 (mixture of isomers) [Example 23.5, 3-{6-(3-chlorophenyl)-8-[cyclohexyl(hydroxy)methyl]-7-[(trans-4-methylcyclohexyl)methyl]-7H-purin-2-yl}-1,2,4-oxadiazol-5(4H)-one]",pIC50,[1]; Table 23,8.14
"C[C@H]1CC[C@H](Cn2c(N3CCO[C@H]4CCCC[C@H]43)nc3nc(-c4noc(=O)[nH]4)nc(-c4cncc(Cl)c4)c32)CC1 (racemic) [Example 16.131, 3-{6-(5-chloropyridin-3-yl)-7-[(trans-4-methylcyclohexyl)methyl]-8-[(cis)-octahydro-4H-1,4-benzoxazin-4-yl]-7H-purin-2-yl}-1,2,4-oxadiazol-5(4H)-one]",pIC50,[1]; Table 16,7.46
